Drawing on patent US10577353B2, “5-(n-[6,5]-fused bicyclic aryl tetrahydroisoquinolin-6-yl) pyridin-3-yl acetic acid derivatives as inhibitors of human immunodeficiency virus replication” (priority 2015, dated 2020), this text covers EC50 for seven compounds.

For the assay, the system named is recombinant NL-RLuc virus (NL4-3 derived HIV). The experiment in a line: Inhibition of HIV replication (NL-RLuc virus in MT-2 cells, luciferase readout). The settings on record: Human immunodeficiency virus 1, NL43, MT2, 120 h. Format: cell-based. From the text:
Inhibition of HIV Replication:
A recombinant NL-RLuc proviral clone was constructed in which a section of the nef gene from NL4-3 was replaced with the Renilla Luciferase gene. This virus is fully infectious and can undergo multiple cycles of replication in cell culture. In addition, the luciferous reporter provides a simple and easy method for quantitating the extent of virus growth and consequently, the antiviral activity of test compounds. The plasmid pNLRLuc contains the proviral NL-Rluc DNA cloned into pUC 18 at the PvuII site. The NL-RLuc virus was prepared by transfection of 293T cells with the plasmid pNLRLuc. Transfections were performed using the LipofectAMINE PLUS kit from Invitrogen (Carlsbad, Calif.) according to the manufacturer and the virus generated was titered in MT-2 cells. For susceptibility analyses, the titrated virus was used to infect MT-2 cells in the presence of compound, and after 5 days of incubation, cells were processed and quantitated for virus growth by the amount of expressed luciferase. Assay media was RPMI 1640 supplemented with 10% heat inactivated fetal bovine serum (FBS), 100 units/ml penicillin G/100 units/ml streptomycin, 10 mM HEPES buffer pH 7.55 and 2 mM L-glutamine. The results from at least 2 experiments were used to calculate the EC50 values. Luciferase was quantitated using the Dual Luciferase kit from Promega (Madison, Wis.). Susceptibility of viruses to compounds was determined by incubation in the presence of serial dilutions of the compound. The 50% effective concentration (EC50) was calculated by using the exponential form of the median effect equation where (Fa)=1/[1+(ED50/drug conc.)^m] (Johnson V A, Byington R T. Infectivity Assay. In Techniques in HIV Research. ed. Aldovini A, Walker B D. 71-76. New York: Stockton Press. 1990).
For orientation: EC50 means the concentration giving half of the maximal effect. In the case of `COc1ccc2nc(N3CCc4cc(-c5c(C)nc(C)c([C@H](OC(C)(C)C)C(=O)O)c5N5CCC(C)(C)CC5)ccc4C3)sc2c1` [Compound 12, (S)-2-(tert-butoxy)-2-(4-(4,4-dimethylpiperidin-1-yl)-5-(2-(6-methoxybenzo[d]thiazol-2-yl)-1,2,3,4-tetrahydroisoquinolin-6-yl)-2,6-dimethylpyridin-3-yl)acetic acid], the EC50 turned out to be 4 nM.
As to `Cc1nc(C)c([C@H](OC(C)(C)C)C(=O)O)c(N2CCC(C)(C)CC2)c1-c1ccc2c(c1)CCN(c1ncnc3[nH]ccc13)C2` [Compound 20, (S)-2-(5-(2-(7H-pyrrolo[2,3-d]pyrimidin-4-yl)-1,2,3,4-tetrahydroisoquinolin-6-yl)-4-(4,4-dimethylpiperidin-1-yl)-2,6-dimethylpyridin-3-yl)-2-(tert-butoxy)acetic acid], the EC50 turned out to be 3 nM.
For the compound `CNc1nc(N2CCc3cc(-c4c(C)nc(C)c([C@H](OC(C)(C)C)C(=O)O)c4N4CCC(C)(C)CC4)ccc3C2)nc2nc[nH]c12` [Compound 23, (S)-2-(tert-butoxy)-2-(4-(4,4-dimethylpiperidin-1-yl)-2,6-dimethyl-5-(2-(6-(methylamino)-7H-purin-2-yl)-1,2,3,4-tetrahydroisoquinolin-6-yl)pyridin-3-yl)acetic acid], the concentration giving a half-maximal response (EC50) was found to be 62 nM.
The value for `Cc1nc(C)c([C@H](OC(C)(C)C)C(=O)O)c(N2CCC(C)(C)CC2)c1-c1ccc2c(c1)CCN(c1nc3ccccc3n1C)C2` [Compound 17, (S)-2-(tert-butoxy)-2-(4-(4,4-dimethylpiperidin-1-yl)-2,6-dimethyl-5-(2-(1-methyl-1H-benzo[d]imidazol-2-yl)-1,2,3,4-tetrahydroisoquinolin-6-yl)pyridin-3-yl)acetic acid] was 22 nM; that for `Cc1ccc2sc(N3CCc4cc(-c5c(C)nc(C)c([C@H](OC(C)(C)C)C(=O)O)c5N5CCC(C)(C)CC5)ccc4C3)nc2c1` [Compound 6, (S)-2-(tert-butoxy)-2-(4-(4,4-dimethylpiperidin-1-yl)-2,6-dimethyl-5-(2-(5-methylbenzo[d]thiazol-2-yl)-1,2,3,4-tetrahydroisoquinolin-6-yl)pyridin-3-yl)acetic acid] was 22 nM.
As to `Cc1nc(C)c([C@H](OC(C)(C)C)C(=O)O)c(N2CCC(C)(C)CC2)c1-c1ccc2c(c1)CCN(c1ncnc3c1cnn3C)C2` [Compound 16, (S)-2-(tert-butoxy)-2-(4-(4,4-dimethylpiperidin-1-yl)-2,6-dimethyl-5-(2-(1-methyl-1H-pyrazolo[3,4-d]pyrimidin-4-yl)-1,2,3,4-tetrahydroisoquinolin-6-yl)pyridin-3-yl)acetic acid], the EC50 turned out to be 2 nM.
Take `Cc1nc(C)c([C@H](OC(C)(C)C)C(=O)O)c(N2CCC(C)(C)CC2)c1-c1ccc2c(c1)CCN(c1nc3ccccc3s1)C2` [Compound 13, (S)-2-(5-(2-(benzo[d]thiazol-2-yl)-1,2,3,4-tetrahydroisoquinolin-6-yl)-4-(4,4-dimethylpiperidin-1-yl)-2,6-dimethylpyridin-3-yl)-2-(tert-butoxy)acetic acid]: the EC50 turned out to be 7 nM.
